The text below walks through data of PubChem BioAssay (NCI).

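Where inhibition never reached the appropriate level, the endpoint shown equals the highest concentration tested. Otherwise, values were interpolated linearly from a five-concentration, 48-hour dose response in 96-well plates. GI50: concentration for 50% inhibition of growth. TGI is the concentration that stops growth completely.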

Some test systems named below: RXF 393 renal; SK-OV-3 ovarian; LOX IMVI melanoma; HL-60(TB) leukemia; K-562 leukemia; SN12C renal; SK-MEL-28 melanoma; SF-295 CNS; MALME-3M melanoma; PC-3 prostate.
What all share (assay): NCI-60 cell line screen, 48 h

Regarding `Cc1nc2ccccc2c(=O)n1/N=C(\N=Nc1cc(Cl)ccc1Cl)c1ccc(N(C)C)cc1`, the TGI was 81.8 µM in the experiment with RXF 393 renal; above 100 µM in the experiment on SK-OV-3 ovarian; above 100 µM with LOX IMVI melanoma; 56.5 µM in the experiment with HL-60(TB) leukemia; above 100 µM in the experiment on K-562 leukemia; above 100 µM in the experiment on SN12C renal. In the experiment with SK-MEL-28 melanoma, this compound came in with a TGI above 100 µM.

Take `C#Cc1c(C)c(/C=C/C(C)=C\C(=O)OC)n(C)c1C`: the TGI with SK-OV-3 ovarian, in the experiment with LOX IMVI melanoma, in the experiment with SF-295 CNS, in the experiment on MALME-3M melanoma, in the experiment with HL-60(TB) leukemia and with K-562 leukemia was above 100 µM each time. This compound also registered a TGI in the experiment on SN12C renal above 100 µM.

On to `O=C(O)CCCCCNCc1cc2cc3c(cc2c2cc(OCc4ccccc4)ccc12)OCO3`, for which the GI50 with SK-OV-3 ovarian was 5.11 µM; in the experiment with LOX IMVI melanoma it was 1.62 µM; in the experiment with SF-295 CNS it was 1.84 µM; in the experiment on MALME-3M melanoma, 1.88 µM; with HL-60(TB) leukemia, 2.32 µM; with SN12C renal it was 5.42 µM. For the same compound, the GI50 in the experiment on SK-MEL-28 melanoma is 1.78 µM. Besides, the TGI in the experiment with SK-OV-3 ovarian worked out at 19.9 µM; in the experiment on LOX IMVI melanoma, 3.1 µM; in the experiment with SF-295 CNS, 3.61 µM; in the experiment on MALME-3M melanoma it was 3.57 µM; in the experiment on HL-60(TB) leukemia, 6.85 µM; in the experiment with SN12C renal, 19.8 µM. For the same compound, the TGI in the experiment with SK-MEL-28 melanoma was 3.33 µM.

In the case of `CC(=O)O[C@H]1CSC[C@@H](OC(C)=O)C1[N+](=O)[O-]` (stereo partly drawn), the TGI is 36.1 µM in the experiment with RXF 393 renal; above 100 µM in the experiment on SK-OV-3 ovarian; above 100 µM in the experiment with SF-295 CNS; 41.6 µM with MALME-3M melanoma; 54.6 µM with HL-60(TB) leukemia; above 100 µM with K-562 leukemia. The TGI is above 100 µM in the experiment on SN12C renal and 69.4 µM in the experiment on SK-MEL-28 melanoma.

As to `CCN(CC)c1ccc(N=Nc2ccc(-c3nc4cccnc4s3)cc2)cc1`, the TGI with SK-OV-3 ovarian, in the experiment on SF-295 CNS, in the experiment on MALME-3M melanoma, in the experiment on HL-60(TB) leukemia, in the experiment with K-562 leukemia and in the experiment on SN12C renal was above 100 µM in each case. Moreover, the TGI in the experiment with SK-MEL-28 melanoma is above 100 µM.

As to `COc1cc([C@H]2OC[C@@H]3C(c4cc(OC)c5c(c4)OCO5)OC[C@H]23)cc(OC)c1OC` (stereo partly drawn), the TGI in the experiment on SK-OV-3 ovarian, in the experiment with LOX IMVI melanoma, with SF-295 CNS, with PC-3 prostate, with K-562 leukemia and in the experiment with SK-MEL-28 melanoma was above 100 µM in each case.

As for `O=C(CC1(O)C(=O)Nc2ccccc21)c1cccc(O)c1` (stereo not drawn), the TGI in the experiment with RXF 393 renal, in the experiment with SK-OV-3 ovarian, in the experiment on LOX IMVI melanoma, in the experiment on SF-295 CNS, in the experiment with MALME-3M melanoma and in the experiment on HL-60(TB) leukemia was above 100 µM each time. Further, the TGI in the experiment on K-562 leukemia, with SN12C renal and in the experiment on SK-MEL-28 melanoma was above 100 µM in each case.

In the case of `CC(C)(c1ccc(C=O)o1)c1ccc(C(C)(C)c2ccc(C=O)o2)o1`, the TGI in the experiment with RXF 393 renal, in the experiment on SK-OV-3 ovarian, in the experiment with LOX IMVI melanoma, in the experiment with SF-295 CNS, in the experiment with MALME-3M melanoma and in the experiment with HL-60(TB) leukemia was above 100 µM each time. Besides, the TGI with K-562 leukemia and in the experiment on SK-MEL-28 melanoma was above 100 µM in each case.

As to `NN=C1/C(=C\c2ccccc2)CCC/C1=C/c1ccccc1`, the TGI is above 100 µM with RXF 393 renal; above 100 µM with SK-OV-3 ovarian; 54.3 µM in the experiment on LOX IMVI melanoma; above 100 µM with SF-295 CNS; 81.1 µM in the experiment with MALME-3M melanoma; 45.1 µM in the experiment on HL-60(TB) leukemia. Besides, the TGI in the experiment on K-562 leukemia was 44 µM; with SN12C renal, above 100 µM; with SK-MEL-28 melanoma it was above 100 µM.

As to `CCOC(=O)C1=C(C)N(NC(=O)Nc2ccccc2)C2(N)N(NC(=O)Nc3ccccc3)C(C)=C(C(=O)OCC)C12C#N` (stereo not drawn), the TGI with RXF 393 renal is 27.7 µM; with SK-OV-3 ovarian, 52.1 µM; in the experiment on LOX IMVI melanoma it was 34 µM; in the experiment with MALME-3M melanoma, 30.6 µM; with K-562 leukemia, 48.2 µM; in the experiment on SN12C renal, 33 µM. In the experiment with SK-MEL-28 melanoma, the TGI was 32.1 µM.

For the compound `CCNC(=O)O/N=C1\CCC2[C@@H]3CC=C4C[C@@H](OC(=O)NCC)CC[C@]4(C)C3CC[C@]12C` (stereo partly drawn), the TGI came out at 11.6 µM in the experiment with RXF 393 renal; 19.7 µM in the experiment with SK-OV-3 ovarian; 4.64 µM in the experiment on LOX IMVI melanoma; 11.4 µM with SF-295 CNS; 1.51 µM with MALME-3M melanoma; 4 µM in the experiment on K-562 leukemia. In addition, the TGI in the experiment with SN12C renal is 11.9 µM; in the experiment with SK-MEL-28 melanoma, 12.1 µM.

As for `CSCSCC(CO)NC(=O)/C=C/c1c(C)[nH]c(=O)[nH]c1=O` (stereo not drawn), the TGI in the experiment with RXF 393 renal, in the experiment on LOX IMVI melanoma, in the experiment on SF-295 CNS, in the experiment with MALME-3M melanoma, with HL-60(TB) leukemia and with K-562 leukemia was above 100 µM throughout. The TGI with SN12C renal and with SK-MEL-28 melanoma was above 100 µM throughout.

`N#Cc1c(N)oc2cc3c(C#N)c(N)oc3cc12`: the TGI in the experiment on RXF 393 renal, with SK-OV-3 ovarian, with LOX IMVI melanoma, with SF-295 CNS, in the experiment on MALME-3M melanoma and in the experiment with HL-60(TB) leukemia was above 100 µM in each case. The TGI with K-562 leukemia, in the experiment with SN12C renal and with SK-MEL-28 melanoma was above 100 µM throughout.

On to `N#Cc1sc2nc3c(c(-c4ccccc4)c2c1N)CCCC3`, for which the TGI with RXF 393 renal was above 100 µM; in the experiment on SK-OV-3 ovarian it was above 100 µM; with LOX IMVI melanoma, above 100 µM; in the experiment on SF-295 CNS it was 43.6 µM; in the experiment with MALME-3M melanoma it was above 100 µM; with HL-60(TB) leukemia, above 100 µM. Further, the TGI in the experiment with K-562 leukemia, in the experiment on SN12C renal and in the experiment on SK-MEL-28 melanoma was above 100 µM each time.

`CN(C(=O)C12C3C4C1C1C2C3C41C#N)C(C)(C)C` (stereo not drawn): the TGI in the experiment on SK-OV-3 ovarian, in the experiment with LOX IMVI melanoma, in the experiment with SF-295 CNS, in the experiment on MALME-3M melanoma, with HL-60(TB) leukemia and with K-562 leukemia was above 100 µM each time. Besides, the TGI with SN12C renal and in the experiment on SK-MEL-28 melanoma was above 100 µM each time.

In the case of `C(=C\c1ccc2ccccc2c1Nc1ccccc1)/c1ccccc1`, the TGI in the experiment on RXF 393 renal is 37.6 µM; in the experiment with SK-OV-3 ovarian it was above 83 µM; in the experiment with LOX IMVI melanoma, above 100 µM; in the experiment with SF-295 CNS it was above 100 µM; with MALME-3M melanoma it was above 78.8 µM; with HL-60(TB) leukemia, above 100 µM. In addition, the TGI is 26.1 µM with K-562 leukemia, above 100 µM in the experiment with SN12C renal and above 88.2 µM with SK-MEL-28 melanoma.
